# Columns and labels:
# [1] = test system: REL-A (p65) nuclear translocation, HeLa cells; assay: REL-A (p65) nuclear translocation assay in HeLa cells (classical NF-kB signaling, TNF-α stimulated); type: cell-based; conditions: Homo sapiens, 0.5 h; HeLa cells, 10 ng/mL TNF-α for 30 minutes; read-out: REL-A HeLa Transloc Assay (IC50)
# Method in brief: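 HeLa cells were exposed to test compounds at various concentrations (0.2% DMSO final) in medium with 10% fetal bovine serum for 4.5 hours, then stimulated for 30 minutes with 10 ng/mL TNF-α. After fixation in 4% paraformaldehyde, 0.1% Triton X-100 permeabilization and staining with 400 ng/mL anti-REL-A (p65) antibody, Alexa488 secondary and DRAQ5, Opera imaging gave nuclear-to-cytoplasmic signal ratios to calculate IC50.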
# [2] = biological target: nuclear factor-kappa B (NF-kB)-inducing kinase (NIK) (Homo sapiens (Human), UniProt Q99558); assay: NIK enzyme inhibition assay (Transcreener ADP, NIK ADP-FP); type: biochemical; conditions: purified NIK 0.5 nM, 10 μM ATP, fluorescence polarization; read-out: NIK ADP-FP (Ki μM)
# Sequence of nuclear factor-kappa B (NF-kB)-inducing kinase (NIK) (Q99558 whole entry): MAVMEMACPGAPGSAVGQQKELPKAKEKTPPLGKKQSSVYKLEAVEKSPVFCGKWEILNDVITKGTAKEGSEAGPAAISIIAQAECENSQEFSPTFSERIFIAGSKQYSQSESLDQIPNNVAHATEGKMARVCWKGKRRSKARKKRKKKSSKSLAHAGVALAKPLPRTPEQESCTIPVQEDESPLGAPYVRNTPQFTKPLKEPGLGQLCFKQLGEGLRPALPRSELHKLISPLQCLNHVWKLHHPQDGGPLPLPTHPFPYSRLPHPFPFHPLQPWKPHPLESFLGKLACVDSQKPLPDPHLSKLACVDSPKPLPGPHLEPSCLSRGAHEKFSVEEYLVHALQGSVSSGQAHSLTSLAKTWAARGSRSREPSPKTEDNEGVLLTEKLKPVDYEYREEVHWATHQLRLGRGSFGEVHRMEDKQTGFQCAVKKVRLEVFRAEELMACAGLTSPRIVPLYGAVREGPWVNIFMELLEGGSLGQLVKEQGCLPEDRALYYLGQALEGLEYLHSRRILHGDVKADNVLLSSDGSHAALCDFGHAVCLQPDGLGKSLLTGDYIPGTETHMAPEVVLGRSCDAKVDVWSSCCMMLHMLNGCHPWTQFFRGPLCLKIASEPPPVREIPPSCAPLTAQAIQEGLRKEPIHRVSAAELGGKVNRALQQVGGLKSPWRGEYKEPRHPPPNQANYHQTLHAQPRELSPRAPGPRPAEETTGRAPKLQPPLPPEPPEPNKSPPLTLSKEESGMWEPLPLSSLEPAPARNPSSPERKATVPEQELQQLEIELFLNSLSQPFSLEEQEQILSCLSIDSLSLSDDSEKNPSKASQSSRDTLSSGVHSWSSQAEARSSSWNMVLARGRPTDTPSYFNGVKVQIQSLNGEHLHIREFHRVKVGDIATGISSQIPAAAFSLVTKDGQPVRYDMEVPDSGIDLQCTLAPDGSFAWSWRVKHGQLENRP
# [3] = test system: p52 (NF-kB2) nuclear translocation, HeLa cells; assay: p52 (NF-kB2) nuclear translocation assay in HeLa cells (non-classical NF-kB signaling, anti-lymphotoxin beta receptor antibody stimulated); type: cell-based; conditions: Homo sapiens, 100 ng/mL anti-lymphotoxin beta receptor antibody for 5 hours, read-out: p52 HeLa Transloc Assay (IC50)
# Method in brief: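 HeLa cells in 10% FBS medium were treated with compound (0.2% DMSO final) and stimulated with 100 ng/mL anti-lymphotoxin beta receptor antibody for 5 h. Fixed cells were immunostained for p52 and imaged with DRAQ5 nuclear stain. Translocation is the nuclear to cytoplasmic intensity ratio, and IC50 values are in micromolar.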
Structure (SMILES),IC50 [1],Ki [2],IC50 [3]
"CN1CC[C@@](O)(C#Cc2cccc(-c3nc(C(N)=O)n4ccc(CN5CCOCC5)cc34)c2)C1=O [Compound 99, 1-[3-[2-[(3R)-3-hydroxy-1-methyl-2-oxo-pyrrolidin-3-yl]ethynyl]phenyl]-7-(morpho-linomethyl)imidazo[1,5-a]pyridine-3-carboxamide]",2000 nM,1.52 nM,231 nM
"CN1CC[C@@](O)(C#Cc2cccc(-c3nc(C(N)=O)n4cc(CN5CCOCC5)ccc34)c2)C1=O [Compound 100, 1-[3-[2-[(3R)-3-hydroxy-1-methyl-2-oxo-pyrrolidin-3-yl]ethynyl]phenyl]-6-(morpho-linomethyl)imidazo[1,5-a]pyridine-3-carboxamide]",2000 nM,1.65 nM,156 nM
"CN1CC[C@@](O)(C#Cc2cccc(-n3nc(C(N)=O)c4cc(-c5ccn(C)n5)ccc43)c2)C1=O [Compound 101, 1-[3-[2-[(3R)-3-hydroxy-1-methyl-2-oxo-pyrrolidin-3-yl]ethynyl]phenyl]-5-(1-meth-ylpyrazol-3-yl)indazole-3-carboxamide]",6320 nM,0.06 nM,31.2 nM
"CN1CC[C@@](O)(C#Cc2cccc(-n3nc(C(N)=O)c4cc(-c5cnn(C)c5)cnc43)c2)C1=O [Compound 104, 1-[3-[2-[(3R)-3-hydroxy-1-methyl-2-oxo-pyrrolidin-3-yl]ethynyl]phenyl]-5-(1-meth-ylpyrazol-4-yl)pyrazolo[3,4-b]pyridine-3-carboxamide]",2000 nM,0.1 nM,26.7 nM
"C[C@@H]1CCc2c1c(C(N)=O)nn2-c1cccc(C#C[C@]2(O)CCN(C)C2=O)c1 [Compound 109, (4R)-1-[3-[2-[(3R)-3-hydroxy-1-methyl-2-oxo-pyrrolidin-3-yl]ethynyl]phenyl]-4-methyl-5,6-dihydro-4H-cyclo-penta[c]pyrazole-3-carbox-amide]",20000 nM,9.58 nM,209 nM
"C[C@H]1CCc2c1c(C(N)=O)nn2-c1cccc(C#C[C@]2(O)CCN(C)C2=O)c1 [Compound 110, (4S)-1-[3-[2-[(3R)-3-hydroxy-1-methyl-2-oxo-pyrrolidin-3-yl]ethynyl]phenyl]-4-methyl-5,6-dihydro-4H-cyclo-penta[c]pyrazole-3-carbox-amide]",20000 nM,0.55 nM,244 nM
"CN1CC[C@@](O)(C#Cc2cc(C#N)cc(-n3nc(C(N)=O)c4cccnc43)c2)C1=O [Compound 111, 1-[3-cyano-5-[2-[(3R)-3-hy-droxy-1-methyl-2-oxo-pyrroli-din-3-yl]ethynyl]phenyl] pyrazolo[3,4-b]pyridine-3-carboxamide]",20000 nM,4.86 nM,701 nM
"CN1CC[C@@](O)(C#Cc2cccc(-n3nc(C(N)=O)c4cc(-c5cnn(CCO)c5)ccc43)c2)C1=O [Compound 113, 5-[1-(2-hydroxyethyl)pyrazol-4-yl]-1-[3-[2-[(3R)-3-hy-droxy-1-methyl-2-oxo-pyrroli-din-3-yl]ethynyl]phenyl] indazole-3-carboxamide]",20000 nM,0.07 nM,440 nM
"CN1CC[C@@](O)(C#Cc2cccc(-n3nc(C(N)=O)c4cncnc43)c2)C1=O [Compound 114, 1-[3-[2-[(3R)-3-hydroxy-1-methyl-2-oxo-pyrrolidin-3-yl]ethynyl]phenyl]pyrazolo [3,4-d]pyrimidine-3-carbox-amide]",20000 nM,0.19 nM,39.4 nM
"C[C@@](O)(C#Cc1cccc(-n2nc(C(N)=O)c3ccccc32)c1)c1c[nH]nn1 [Compound 117, 1-[3-[(3R)-3-hydroxy-3-(1H-triazol-4-yl)but-1-ynyl]phe-nyl]indazole-3-carboxamide]",20000 nM,0.32 nM,74.3 nM
"CN1CC[C@@](O)(C#Cc2cccc(-n3nc(C(N)=O)c4c3CCC4)c2)C1=O [Compound 119, 1-[3-[2-[(3R)-3-hydroxy-1-methyl-2-oxo-pyrrolidin-3-yl]ethynyl]phenyl]-5,6-dihydro-4H-cyclopenta[c]pyrazole-3-carboxamide]",20000 nM,0.43 nM,45.8 nM
"CN1CC[C@@](O)(C#Cc2cccc(-n3nc(C(N)=O)c4c3CCN(c3ccncn3)C4)c2)C1=O [Compound 120, 1-[3-[2-[(3R)-3-hydroxy-1-methyl-2-oxo-pyrrolidin-3-yl]ethynyl]phenyl]-5-pyrimi-din-4-yl-6,7-dihydro-4H-pyra-zolo[4,5-c]pyridine-3-carbox-amide]",20000 nM,0.52 nM,1430 nM
"CN1CC[C@@](O)(C#Cc2cccc(-n3nc(C(N)=O)c4c3CCN(c3ncccn3)C4)c2)C1=O [Compound 121, 1-[3-[2-[(3R)-3-hydroxy-1-methyl-2-oxo-pyrrolidin-3-yl]ethynyl]phenyl]-5-pyrimi-din-2-yl-6,7-dihydro-4H-pyra-zolo[4,3-c]pyridine-3-carbox-amide]",20000 nM,1.05 nM,203 nM
"CN1CC[C@@](O)(C#Cc2cccc(-n3nc(C(N)=O)c4c3CCN(c3nccs3)C4)c2)C1=O [Compound 122, 1-[3-[2-[(3R)-3-hydroxy-1-methyl-2-oxo-pyrrolidin-3-yl]ethynyl]phenyl]-5-thiazol-2-yl-6,7-dihydro-4H-pyra-zolo[4,3-c]pyridine-3-carbox-amide]",20000 nM,0.29 nM,266 nM
"CCNc1nccc2c1c(C(N)=O)nn2-c1cccc(C#C[C@]2(O)CCN(C)C2=O)c1 [Compound 129, 4-(ethylamino)-1-[3-[2-[(3R)-3-hydroxy-1-methyl-2-oxo-pyrrolidin-3-yl]ethynyl]phenyl]pyrazolo[4,3-c]pyri-dine-3-carboxamide]",4470 nM,0.05 nM,8.12 nM
"CN1CC[C@@](O)(C#Cc2cccc(-n3nc(C(N)=O)c4c(NC5CC5)nccc43)c2)C1=O [Compound 130, 4-(cyclopropylamino)-1-[3-[2-[(3R)-3-hydroxy-1-meth-yl-2-oxo-pyrrolidin-3-yl]eth-ynyl]phenyl]pyrazolo[4,3-c]pyridine-3-carboxamide]",2000 nM,0.11 nM,53.1 nM
"Cc1cc2c(cn1)c(C(N)=O)nn2-c1cccc(C#C[C@]2(O)CCN(C)C2=O)c1 [Compound 131, 1-[3-[2-[(3R)-3-hydroxy-1-methyl-2-oxo-pyrrolidin-3-yl]ethynyl]phenyl]-6-methyl-pyrazolo[4,3-c]pyridine-3-carboxamide]",20000 nM,0.31 nM,87 nM
"CN1CC[C@@](O)(C#Cc2cccc(-n3nc(C(N)=O)c4cnccc43)c2)C1=O [Compound 132, 1-[3-[2-[(3R)-3-hydroxy-1-methyl-2-oxo-pyrrolidin-3-yl]ethynyl]phenyl]pyrazolo [4,3-c]pyridine-3-carboxamide]",20000 nM,0.378 nM,88.7 nM
"N#Cc1cc2c(cn1)c(C(N)=O)nn2-c1cccc(C#C[C@@]2(O)CCc3cccnc32)c1 [Compound 135, 6-cyano-1-[3-[2-[(7S)-7-hy-droxy-5,6-dihydrocyclopen-ta[b]pyridin-7-yl]ethynyl]phe-nyl]pyrazolo[4,3-c]pyridine-3-carboxamide]",20000 nM,0.7 nM,91.4 nM
"CCOc1cc2c(cn1)c(C(N)=O)nn2-c1cccc(C#C[C@]2(O)CCN(C)C2=O)c1 [Compound 136, 6-ethoxy-1-[3-[2-[(3R)-3-hy-droxy-1-methyl-2-oxo-pyrroli-din-3-yl]ethynyl]phenyl] pyrazolo[4,3-c]pyridine-3-carboxamide]",20000 nM,0.39 nM,72.6 nM
"CN1CC[C@@](O)(C#Cc2cccc(-n3nc(C(N)=O)c4cnc(N5CCCC5)cc43)c2)C1=O [Compound 137, 1-[3-[2-[(3R)-3-hydroxy-1-methyl-2-oxo-pyrrolidin-3-yl]ethynyl]phenyl]-6-pyrroli-din-1-yl-pyrazolo[4,3-c]pyri-dine-3-carboxamide]",20000 nM,0.25 nM,33.8 nM
"COc1cc2c(cn1)c(C(N)=O)nn2-c1cccc(C#C[C@]2(O)CCN(C)C2=O)c1 [Compound 140, 1-[3-[2-[(3R)-3-hydroxy-1-methyl-2-oxo-pyrrolidin-3-yl]ethynyl]phenyl]-6-methoxy-pyrazolo[4,3-c]pyridine-3-carboxamide]",8000 nM,0.05 nM,38.2 nM
"CCCC(=O)N(C)Cc1ccc2c(c1)c(C(N)=O)nn2-c1cc(C#C[C@]2(O)CCN(C)C2=O)ccn1 [Compound 142, 5-[[butanoyl(methyl)amino]methyl]-1-[4-[2-[(3R)-3-hy-droxy-1-methyl-2-oxo-pyrroli-din-3-yl]ethynyl]-2-pyri-dyl]indazole-3-carboxamide]",20000 nM,1.71 nM,793 nM
"CN1CC[C@@](O)(C#Cc2cccc(-n3nc(C(N)=O)c4scnc43)c2)C1=O [Compound 144, 1-[3-[2-[(3R)-3-hydroxy-1-methyl-2-oxo-pyrrolidin-3-yl]ethynyl]phenyl]pyrazolo [3,4-d]thiazole-3-carboxamide]",20000 nM,0.31 nM,33.1 nM
